“Also recorded” adds a separate entry of the source.
Experiments:
Format in all cases: in vivo, human
[1] = Pharmacokinetics of orally administered squalamine (ENT-01) in Stage 1; details: based on PK of intravenously administered squalamine in prior clinical studies
Protocol: PK data were collected on the 10 patients enrolled in Stage 1 and 10 patients enrolled in Stage 2 to determine the extent of systemic absorption. In Stage 1, PK data were obtained at each visit, pre-medication, at 1, 2, 4, 8 and 24 hours (Table 10). In Stage 2, PK was measured on days 1 and 6 of the randomization period pre-medication, at 1, 2, 4 and 8 hours (Table 11).
The mean Cmax, Tmax and T1/2 and AUC of the squalamine ion following squalamine (ENT-01) oral dosing for Stage 1 patients. The PK analyses are only approximate, as the lower limit of the validated concentration range was 10 ng/ml; most of the measured concentrations fell below that value. The mean Cmax, Tmax and T1/2 and AUC of the squalamine ion following squalamine (ENT-01) oral dosing for Stage 2 patients. The PK analyses are only approximate, as the lower limit of the validated concentration range was 0.5 ng/ml.

[2] = system: PD patients with constipation; test: Phase 2 trial Stage 1: prokinetic response to single escalating oral doses; details: Example 1, FIG. 1A
Protocol: Following successful screening, all subjects underwent a 14-day run-in period where the degree of constipation was assessed through a validated daily log (Zinsmeister et al. 2013) establishing baseline CSBMs/week. Subjects with an average of <3 CSBMs/week proceeded to dosing.
Tolerability limits included diarrhea or vomiting.

[3] = system: PD patients with constipation; test: Safety and adverse event profile, Stage 1 and 2 combined (44 dosed)
Protocol: Fifty patients were enrolled and 44 were dosed. In Stage 1, 10 patients were dosed, 1 (10%) withdrew prior to completion and 9 (90%) completed dosing. In stage 2, 6 (15%) patients had ≥3 CSBM/week at the end of the run-in period and were excluded, 34 patients were dosed and bowel response was assessable in 31 (91%). Two patients (5.8%) were terminated prior to completion because of recurrent dizziness, and 3 others withdrew during dosing (8.8%): 2 because of diarrhea and 1 because of holiday. Fifteen patients were randomized.

[4] = system: PD patients with constipation; test: Circadian rhythm of wrist skin temperature; details: for circadian rhythm of skin temperature: markers of healthy circadian function (IS, RA, CFI, IV): fixed dose vs baseline, 12 evaluable patients
Protocol: (6) I-Button Temperature Assessment. The I-Button is a small, rugged self-sufficient system that measures temperature and records the results in a protected memory section. The Thermochron I-Button DS1921H (Maxim Integrated, Dallas, Tex.) was used for skin temperature measurement. I-Buttons were programmed to sample every 10 mins., and attached to a double-sided cotton sport wrist band using Velcro, with the sensor face of the I-Button placed over the inside of the wrist, on the radial artery of the dominant hand. Subjects removed and replaced the data logger when necessary (i.e., to have a bath or shower). The value of skin temperature assessment in sleep research is that the endogenous skin warming resulting from increased skin blood flow is functionally linked to sleep propensity. From the collected data, the mesor, amplitude, acrophase (time of peak temperature), Rayleight test (an index of interdaily stability), mean waveforms are calculated.);
Assessments were made at baseline and at the end of the fixed dose and washout periods. Circadian system status was evaluated by continuously monitoring wrist skin temperature (Thermochron iButton DS1921H; Maxim, Dallas) following published procedures (Sarabia et al. 2008).
Circadian rhythm of skin temperature was evaluable in 12 patients (i.e., those who had recordings that extended from baseline through washout). Circadian system functionality was evaluated by continuously monitoring wrist skin temperature using a temperature sensor (Thermochron iButton DS1921H; Maxim, Dallas, Tex.) (Sarabia et al. 2008). […]
Briefly, this analysis includes the following parameters: (i) the inter-daily stability (the constancy of 24-hour rhythmic pattern over days, IS); (ii) intra-daily variability (rhythm fragmentation, IV); (iii) average of 10-minute intervals for the 10 hours with the minimum temperature (L10); (iv) average of 10-minute intervals for the 5 hours with the maximum temperature (M5) and the relative amplitude (RA), which was determined by the difference between M5 and L10, divided by the sum of both. […]

CC(C)[C@@H](CC[C@@H](C)[C@H]1CC[C@H]2[C@@H]3[C@H](O)C[C@H]4C[C@@H](NCCCNCCCCN)CC[C@]4(C)[C@H]3CC[C@]12C)OS(=O)(=O)O (single isomer, unassigned) [squalamine (ENT-01), squalamine]
oral bio-availability (estimated) [1]: less than 0.3% | oral bio-availability (estimated) ([1]; listed as aminosterol): < 0.3% | subjects responded with improved bowel function [2]: 80% | worsening of hemorrhoids, patients ([3]; 1/44 patients): 2.2% | worsening of acid reflux, patients ([3]; 2/44 patients): 4.5% | flatulence, patients ([3]; 3/44 patients): 6.8% | vomiting, patients ([3]; 3/44 patients): 6.8% | dizziness, patients ([3]; 8/44 patients): 18% | abdominal pain, patients ([3]; 11/44 patients): 32% | outcome of all other AEs ([3]; in vivo): resolved spontaneously without discontinuation | circadian rhythm of skin temperature: markers of healthy circadian function (IS, RA, CFI, IV) [4]: significant positive impact; also recorded: improved all markers of healthy circadian function | circadian rhythm of skin temperature: markers of healthy circadian function (IS, RA, CFI, IV) ([4]; listed as Aminosterol): improved all markers of healthy circadian function | circadian parameters during wash-out (IS, CFI) ([4]; wash-out period): improvement persisted for several of these circadian parameters

Reference: patent US20200038415A1, “AMINOSTEROL COMPOSITIONS AND METHODS OF USING THE SAME FOR TREATING ERECTILE DYSFUNCTION” (Enterin, Inc., priority 2018, published 2020)
